Laboratory results as given in publication PMC10607100, “Anticancer and Antiphytopathogenic Activity of Fluorinated Isatins and Their Water-Soluble Hydrazone Derivatives” (International Journal of Molecular Sciences, 2023).
Like-named read-outs stand apart in the source and are kept apart here.

How the values were obtained:
Type in all cases: cell-based
[1] = test system: five representative phytopathogens; experiment: Agar-well diffusion, bactericidal activity over the panel of phytopathogens
From the text: Plant pathogenic bacterial strains Micrococcus luteus B-109, Pectobacterium atrosepticum 1043, Pectobacterium carotovorum subsp. carotovorum MI, Pseudomonas fluorescens EL-2.1, and Xanthomonas campestris B-610 and the fungal strain Fusarium oxysporum IBPPM 543 were from the Collection of Rhizosphere Microorganisms, IBPPM RAS (WFCC no. 975, WDCM no. 1021) (CM IBPPM, http://collection.ibppm.ru). The pathogenic fungus Phytophthora cactorum VKM F-985, provided by the All-Russian Collection of Microorganisms (VKM) and deposited at the A.E. Favorsky Irkutsk Institute of Chemistry, SB RAS, was also used as a test organism. Bacteria M. luteus, P. carotovorum subsp. carotovorum, P. atrosepticum, and P. fluorescens were grown in a meat–peptone medium (BP), and X. campestris was grown in the medium with glucose, yeast extract, and calcium carbonate (GYCa). Solid media contained Bacto agar (18 g/L); pH was adjusted to 7.2–7.4. All bacterial cultures were grown at 28 °C. The mycelial cultures of F. oxysporum and P. cactorum were grown on a glucose–peptone–yeast (GPY) nutrient medium at 27 °C. For inoculum preparation, both fungal strains were initially grown on the agar GPY in Petri dishes and then transferred into the seed medium by punching out 5 mm of the agar plate culture with a self-designed cutter.
The antibacterial and antifungal activities of the compounds were explored using the agar-well diffusion method and the technique of mycelial radial growth inhibition. The method of diffusion in agar (measuring the diameter of growth inhibition zones) was used to determine the bactericidal activity. The 6-mm wells were made in agar medium (GYCa for Xanthomonas campestris or BP for other bacteria). Bacterial suspensions were distributed over the agar surface, and the tested compound’s solution (150 μL) was added to each well. The width of growth inhibition zones around the wells was determined after incubation for 36–40 h.

[2] = test system: Micrococcus luteus B-109; experiment: Agar-well diffusion, bactericidal activity; settings: Micrococcus luteus
Summary of the method: (§1)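 Bacteria spread on agar (BP medium; GYCa for X. campestris; pH 7.2–7.4) with 6-mm wells, each receiving 150 μL compound solution. Cultures grown at 28 °C; growth-inhibition zone width measured after 36–40 h.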

[3] = test system: Pectobacterium carotovorum subsp. carotovorum MI; experiment: Agar-well diffusion, bactericidal activity; settings: Pectobacterium carotovorum, 2 mM/L
Summary of the method: as §1

[4] = test system: Pectobacterium atrosepticum 1043; experiment: Agar-well diffusion, bactericidal activity; settings: Pectobacterium atrosepticum, 1043, 2 mM/L
Summary of the method: as §1

[5] = test system: Pseudomonas fluorescens EL-2.1; experiment: Agar-well diffusion, bactericidal activity; settings: Pseudomonas fluorescens, EL2.1, 2 mM/L
Summary of the method: as §1

[6] = test system: Xanthomonas campestris B-610; experiment: Agar-well diffusion, bactericidal activity; settings: Xanthomonas campestris
Summary of the method: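 Agar-well diffusion on GYCa agar (pH 7.2–7.4) seeded with bacterial suspension; 150 μL compound solution placed in 6-mm wells. Inhibition zone width measured after 36–40 h incubation.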

[7] = test system: Fusarium oxysporum IBPPM 543; experiment: Mycelial radial growth inhibition; settings: Fusarium oxysporum; for inhibition of growth at 1 µM: 1 nmol/mL; for inhibition of growth at 1 µM / inhibition of growth at 5 µM / inhibition of growth at 30 µM / inhibition of growth at 40 µM: read-out: Inhibition value, I (%); for inhibition of growth at 5 µM: 5 nmol/mL; for inhibition of growth at 30 µM: 30 nmol/mL; for inhibition of growth at 40 µM: 40 nmol/mL
Summary of the method: (§2)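 Compounds mixed into molten GPY agar at various concentrations; centre inoculated with a 5-mm mycelial plug from 10-day cultures and incubated at 27 °C. Colony diameter compared with untreated control until control plate was covered (usually 12 days); ≥4 replicates in two experiments.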

[8] = test system: Phytophthora cactorum VKM F-985; experiment: Mycelial radial growth inhibition; settings: Phytophthora cactorum; for inhibition of growth at 3 µM: 3 nmol/mL; for inhibition of growth at 3 µM / inhibition of growth at 7 µM / inhibition of growth at 20 µM / inhibition of growth / inhibition of growth at 40 µM: read-out: Inhibition value, I (%); for inhibition of growth at 7 µM: 7 nmol/mL; for inhibition of growth at 20 µM: 20 nmol/mL; for inhibition of growth: 27 nmol/mL; for inhibition of growth at 40 µM: 40 nmol/mL
Summary of the method: as §2

[9] = Table S3, read-out: Inhibition zone width (mm), not less
[10] = IBPPM543, 72 h, age of the fungus 3 days
[11] = IBPPM543, 120 h, age of the fungus 5 days
[12] = IBPPM543, 168 h, age of the fungus 7 days
[13] = IBPPM543, 216 h, age of the fungus 9 days
[14] = 120 h, age of the fungus 5 days
[15] = 168 h, age of the fungus 7 days
[16] = 216 h, age of the fungus 9 days

With `Cc1ccc[n+](CC(=O)N/N=C2\C(=O)N(Cc3ccccc3F)c3ccccc32)c1C` [Compound 7a] the zone of inhibition at 2000 µM ([1]; 36 h, 2 mM solutions, dependent on the test system used, read-out: inhibition zone width (mm), range over the test systems) was 2 to 6 mm, the “bactericidal activity” value ([1]; Table S2) was “moderate bactericidal activity” and the inhibition zone ([1]; against P. carotovorum subsp. carotovorum MI, Ps. fluorescens EL-2.1 and X. campestris B-610) was 5–6 mm. For the same molecule, the zone of inhibition at 2000 µM ([2]; B109, 2 mM/L, average of 3 experiments, read-out: width of the inhibition zone (mm), M. luteus) was 2 mm, the zone of inhibition at 2000 µM ([2]; B109, Table S3, 2 mM/L, read-out: Inhibition zone width (mm), not less) was at least 2 mm and the zone of inhibition at 2000 µM ([3]; average of 3 experiments, read-out: width of the inhibition zone (mm), P. carotovorum subsp. carotovorum) was 6 mm. It also gave a zone of inhibition at 2000 µM [3, 9] of at least 6 mm, a zone of inhibition at 2000 µM ([4]; average of 3 experiments, read-out: width of the inhibition zone (mm), P. atrosepticum) of 3 mm and a zone of inhibition at 2000 µM [4, 9] of at least 3 mm. The zone of inhibition at 2000 µM ([5]; average of 3 experiments, read-out: width of the inhibition zone (mm), Ps. fluorescens) was 5 mm, the zone of inhibition at 2000 µM [5, 9] was at least 5 mm and the zone of inhibition at 2000 µM ([6]; B610, 2 mM/L, average of 3 experiments, read-out: width of the inhibition zone (mm), X. campestris) was 5 mm. The zone of inhibition at 2000 µM ([6]; B610, Table S3, 2 mM/L, read-out: Inhibition zone width (mm), not less) was at least 5 mm, the inhibition of growth at 1 µM [7, 10] was 9% and the inhibition of growth at 5 µM [7, 10] was 43%. It also gave an inhibition of growth at 30 µM [7, 10] of 51%, an inhibition of growth at 40 µM [7, 10] of 61% and an EC50 ([7]; IBPPM543, 120 h, day 5, read-out: EC50, µg/mL at Day 5, F. oxysporum) of 7.25 µg/mL. It also gave an inhibition of growth at 1 µM [7, 11] of 4%, an inhibition of growth at 5 µM [7, 11] of 44% and an inhibition of growth at 30 µM [7, 11] of 59%. The inhibition of growth at 40 µM [7, 11] was 65%, the inhibition of growth at 1 µM [7, 12] was 8% and the inhibition of growth at 5 µM [7, 12] was 41%. The inhibition of growth at 30 µM [7, 12] was 56%, the inhibition of growth at 40 µM [7, 12] was 69% and the inhibition of growth at 1 µM [7, 13] was 0%. It also gave an inhibition of growth at 5 µM [7, 13] of 33%, an inhibition of growth at 30 µM [7, 13] of 55% and an inhibition of growth at 40 µM [7, 13] of 64%. It also gave an inhibition of growth at 3 µM ([8]; 72 h, age of the fungus 3 days) of 5%, an inhibition of growth at 7 µM ([8]; 72 h, age of the fungus 3 days) of 17% and an inhibition of growth at 20 µM ([8]; 72 h, age of the fungus 3 days) of 21%. For the same molecule, the inhibition of growth ([8]; 72 h, age of the fungus 3 days) was 27%, the inhibition of growth at 40 µM ([8]; 72 h, age of the fungus 3 days) was 42% and the EC50 ([8]; 120 h, day 5, read-out: EC50, µg/mL at Day 5, P. cactorum) was 22.9 µg/mL. It also gave an inhibition of growth at 3 µM [8, 14] of 12%, an inhibition of growth at 7 µM [8, 14] of 21% and an inhibition of growth at 20 µM [8, 14] of 25%. It also gave an inhibition of growth [8, 14] of 29%, an inhibition of growth at 40 µM [8, 14] of 45% and an inhibition of growth at 3 µM [8, 15] of 4%. For the same molecule, the inhibition of growth at 7 µM [8, 15] was 10%, the inhibition of growth at 20 µM [8, 15] was 16% and the inhibition of growth [8, 15] was 20%. For the same molecule, the inhibition of growth at 40 µM [8, 15] was 38%, the inhibition of growth at 3 µM [8, 16] was 4% and the inhibition of growth at 7 µM [8, 16] was 6%. The inhibition of growth at 20 µM [8, 16] was 13%, the inhibition of growth [8, 16] was 16% and the inhibition of growth at 40 µM [8, 16] was 37%.
